Five compounds from ChEMBL document CHEMBL3585331, “Recent advances for FLAP inhibitors” (Bioorg Med Chem Lett, 2015) can be followed below.

The structures appear in SMILES notation.

The test system of experiment [1] is Blood. The experiment in a line: Inhibition of LTB4 production in human whole blood. The format is functional, tissue-based.
Experiment [2] deals with Blood. The experiment in a line: Inhibition of A23187-induced LTB4 production in human whole blood pre-incubated for 15 mins before A23187 stimulation for another 15 mins. The format is functional, tissue-based.
Experiment [3] deals with T1, Arachidonate 5-lipoxygenase-activating protein (Homo sapiens, UniProt P20292).
T1 sequence (P20292 whole entry): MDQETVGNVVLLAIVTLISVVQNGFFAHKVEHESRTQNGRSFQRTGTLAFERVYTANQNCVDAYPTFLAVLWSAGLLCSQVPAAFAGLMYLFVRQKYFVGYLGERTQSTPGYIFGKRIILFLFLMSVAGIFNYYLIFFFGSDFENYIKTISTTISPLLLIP
The experiment in a line: Binding affinity to FLAP (unknown origin).

In experiment [1], `CC(C)Cc1ccc(C(C)c2nc3ccccc3n2Cc2ccccc2Cl)cc1` (stereo unspecified) had a half-maximal inhibitory concentration (IC50) of 120 nM.
For `CC(C)C(C)(c1ccc(-c2ccc(C(C)(C)O)nn2)cc1)c1ccc(OCc2ccccn2)cn1` (stereo unspecified), in experiment [1], inhibition was half-maximal at 12 nM (IC50).
In experiment [2], `Nc1cnc(-c2ccc(C3CCC3)c(Oc3ncccn3)c2F)cn1` showed a half-inhibitory concentration (IC50) of 66 nM.
As to `CC(C)(O)CNC(=O)c1ccc(C2(c3ccc(-c4cnc(N)cn4)cc3)CCCO2)cn1` (stereo unspecified), the concentration for half-maximal inhibition (IC50) in experiment [1] was 62 nM.
As to `CC(C)(C)Sc1c(CC(C)(C)C(=O)O)n(Cc2ccc(Cl)cc2)c2ccc(OCc3ccc4ccccc4n3)cc12` [QUIFLAPON], the IC50 worked out at 36 nM in experiment [3] and 500 nM in experiment [1].

For orientation: IC50 means the concentration that inhibits the measured activity by half. Read a high IC50 as weaker potency.
